For 14 compounds, IC50 results are on record in patent publication US20080293785A1, “SUBSTITUTED BENZOTHIAZOLE KINASE INHIBITORS” (priority 2006, published 2008).

What all share (assay type): biochemical
The target in one assay is T1, CDK1:Cyclin-B (Homo sapiens, UniProt P06493).
T1 construct: purchased New England Biolabs, Beverly, Mass; 6020; host or cells: insect cells
Description: CDK1 Screening Assay. The conditions noted are these: 10 μM ATP, biotinylated histone-H1 peptide substrate, 33P-γ-ATP FlashPlate; read-out: Kinase IC50 CDK1. As for the experimental part:
(§1) A kinase reaction mixture was prepared containing 50 mM Tris.HCl pH=8, 10 mM MgCl2, 0.1 mM Na3PO4, 1 mM DTT, 10 μM ATP, 0.025 μM biotinylated histone-H1 peptide substrate and 0.2 μCuries per well ^33P-γ-ATP (2000-3000 Ci/mmol). 70 μL of the kinase reaction mixture was dispensed into the well of a streptavidin coated FlashPlate™ (Cat. # SMP103, NEN, Boston, Mass.). Then 1 μL of test compound stock in 100% DMSO was added to the wells resulting in a final concentration of 1% DMSO in the reaction well with a 100 μL final reaction well volume.
(§2) The CDK1:Cyclin-B protein was diluted in 50 mM Tris.HCl pH=8.0, 0.1% BSA at a concentration of 1 ng per μL and 30 μL (30 ng enzyme per test well) was added to each well to initiate the reaction. The reaction was incubated for one hour at 30° C. At the end of the one hour incubation, the reaction was terminated by aspirating the mixture from the plate and washing the wells twice with PBS containing 100 mM EDTA. The histone-H1 biotinylated peptide substrate became immobilized on the Flashplate™ and the incorporation of ^33P-γ-ATP was measured by reading the plate on a scintillation counter. Inhibition of the enzymatic activity of CDK1 was measured by observing a reduced amount of ^33P-γ-ATP incorporated into the immobilized peptide.
The CDK1 kinase used was isolated from insect cells expressing both the human CDK1 catalytic subunit and its positive regulatory subunit cyclin B (New England Biolabs, Beverly, Mass., Cat. # 6020).
(§3) An IC50 listed as >0.1, >1, >10 or >100 means no observed 50% inhibition at the indicated test concentration. […] ND means the compound was not tested in the assay specified.

A further assay concerns the target T2, CDK2:Cyclin A (Homo sapiens, UniProt P24941).
T2 construct: purchased Upstate Biotech, Lake Placid, N.Y
The assay can be described thus: CDK2 Screening Assay. Conditions: 10 μM ATP, biotinylated histone-H1 peptide substrate, 33P-γ-ATP FlashPlate; read-out: Kinase IC50 CDK2. The method, then:
as §1
as §2, with “CDK2:Cyclin A” for “CDK1:Cyclin-B”, “CDK2” for “CDK1”
The CDK2 kinase used was complexed with cyclin A and is commercially available (Upstate Biotech, Lake Placid, N.Y.).
as §3

The target in the next assay is VEGF-R2 kinase domain (Rattus norvegicus, UniProt O08775). The assay can be described thus: VEGF-R2 Screening Assay. The conditions noted are these: 10 μM ATP, biotinylated PLC1 peptide substrate, 33P-γ-ATP FlashPlate; read-out: Kinase IC50 VEGFR. The method, then: A kinase reaction mixture was prepared containing 50 mM Tris.HCl pH=8, 10 mM MgCl2, 0.1 mM Na3PO4, 1 mM DTT, 10 μM ATP, 0.025 μM biotinylated peptide substrate and 0.8 μCuries per well ^33P-γ-ATP (2000-3000 Ci/mmol). 70 μL of the kinase reaction mixture was dispensed into the well of a streptavidin coated FlashPlate™ (Cat. # SMP103, NEN, Boston, Mass.). Then 1 μL of test compound stock in 100% DMSO was added to the wells resulting in a final concentration of 1% DMSO in the reaction well with a 100 μL final reaction well volume.
The soluble rat tyrosine kinase containing an N-terminal 6×HIS tag was diluted in 50 mM Tris.HCl pH=8.0, 0.1% BSA at a concentration of 5 ng per μL and 30 μL (150 ng enzyme per test well) was added to each well to initiate the reaction. The reaction was incubated for one hour at 30° C. At the end of the one hour incubation, the reaction was terminated by aspirating the reaction mixture from the plate and washing the wells twice with PBS containing 100 mM EDTA. The PLC1 biotinylated peptide substrate became immobilized on the Flashplate™ and the incorporation of ^33P-γ-ATP was measured by reading the plate on a scintillation counter. Inhibition of the enzymatic activity of the VEGF-R was measured by observing a reduced amount of ^33P-γ-ATP incorporated into the immobilized peptide.
The VEGF-R kinase assay was carried out using the CDK kinase assay procedure except that the enzyme was replaced with the VEGF-R2 fusion protein containing a polyhistidine tag at the N-terminus followed by amino acids 786-1343 of the rat VEGF-R2 kinase domain (GenBank Accession #U93306).
as §3

Bounds are passed on as bounds.

T1 sequence (P06493 whole entry): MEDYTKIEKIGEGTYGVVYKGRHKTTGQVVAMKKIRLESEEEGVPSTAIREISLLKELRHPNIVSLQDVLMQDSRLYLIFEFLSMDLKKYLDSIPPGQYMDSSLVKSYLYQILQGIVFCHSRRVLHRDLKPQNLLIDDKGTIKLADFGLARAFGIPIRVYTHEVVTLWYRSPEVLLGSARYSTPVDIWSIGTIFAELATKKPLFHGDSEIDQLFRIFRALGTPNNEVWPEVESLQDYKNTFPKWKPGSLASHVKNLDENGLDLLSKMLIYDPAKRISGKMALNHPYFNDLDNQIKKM
T1 sequence (P14635 whole entry partner): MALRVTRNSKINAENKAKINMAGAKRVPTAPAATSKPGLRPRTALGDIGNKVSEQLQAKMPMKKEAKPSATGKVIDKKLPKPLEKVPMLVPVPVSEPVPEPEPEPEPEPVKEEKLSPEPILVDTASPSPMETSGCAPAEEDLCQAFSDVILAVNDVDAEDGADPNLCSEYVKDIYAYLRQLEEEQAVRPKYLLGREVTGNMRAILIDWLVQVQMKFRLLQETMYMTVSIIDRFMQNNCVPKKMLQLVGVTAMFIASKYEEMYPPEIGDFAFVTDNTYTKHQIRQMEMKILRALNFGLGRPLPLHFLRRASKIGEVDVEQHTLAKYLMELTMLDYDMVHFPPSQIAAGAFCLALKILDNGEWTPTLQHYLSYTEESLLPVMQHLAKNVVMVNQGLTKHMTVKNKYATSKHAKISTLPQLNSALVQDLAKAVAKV
VEGF-R2 kinase domain, sequence (O08775 786-1343): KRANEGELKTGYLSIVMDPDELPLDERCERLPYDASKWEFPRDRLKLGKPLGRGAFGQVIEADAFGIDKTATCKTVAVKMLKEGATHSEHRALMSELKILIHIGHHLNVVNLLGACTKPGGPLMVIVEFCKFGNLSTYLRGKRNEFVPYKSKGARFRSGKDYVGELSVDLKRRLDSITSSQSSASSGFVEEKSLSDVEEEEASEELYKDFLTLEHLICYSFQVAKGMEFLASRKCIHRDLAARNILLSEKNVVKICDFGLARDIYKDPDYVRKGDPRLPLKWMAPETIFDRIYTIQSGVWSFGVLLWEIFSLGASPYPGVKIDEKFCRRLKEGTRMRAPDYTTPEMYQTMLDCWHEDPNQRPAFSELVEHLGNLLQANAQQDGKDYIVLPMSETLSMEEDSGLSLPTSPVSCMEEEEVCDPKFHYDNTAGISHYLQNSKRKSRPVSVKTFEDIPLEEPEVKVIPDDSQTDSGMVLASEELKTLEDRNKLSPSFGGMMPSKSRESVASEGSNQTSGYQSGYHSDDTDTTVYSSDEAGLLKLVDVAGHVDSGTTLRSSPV

As for `O=C(Nc1ccccc1F)Nc1cccc2sc(Nc3ccccc3)nc12` [Cpd 7, 1-(2-fluoro-phenyl)-3-(2-phenylamino-benzothiazol-4-yl)-urea], the IC50 was greater than 100 µM at CDK1:Cyclin-B, 17.4 µM on CDK2:Cyclin A and greater than 100 µM on VEGF-R2 kinase domain.
Take `O=C(Nc1c(Cl)cccc1Cl)Nc1cccc2sc(Nc3ccccc3)nc12` [Cpd 8, 1-(2,6-dichloro-phenyl)-3-(2-phenylamino-benzothiazol-4-yl)-urea]: the 50% inhibitory concentration (IC50) on CDK1:Cyclin-B is 17.5 µM; on CDK2:Cyclin A it was 3.74 µM; at VEGF-R2 kinase domain it was greater than 100 µM.
As for `O=C(Nc1cccc2sc(Nc3ccccc3)nc12)c1ccccc1` [Cpd 9, N-(2-phenylamino-benzothiazol-4-yl)-benzamide], the figures for the half-maximal inhibitory concentration (IC50) at CDK1:Cyclin-B, at CDK2:Cyclin A and at VEGF-R2 kinase domain were greater than 100 µM, 17.5 µM and greater than 100 µM, respectively.
As to `O=C(Nc1cccc2sc(Nc3ccccc3)nc12)c1c(F)cccc1F` [Cpd 10, 2,6-difluoro-N-(2-phenylamino-benzothiazol-4-yl)-benzamide], the figures for the IC50 on CDK1:Cyclin-B, on CDK2:Cyclin A and on VEGF-R2 kinase domain were 3.64 µM, 0.65 µM and 5.96 µM, respectively.
Consider `COc1ccc(Nc2nc3c(NC(=O)c4c(F)ccc(C)c4F)cccc3s2)cc1` [Cpd 11, 2,6-difluoro-N-[2-(4-methoxy-phenylamino)-benzothiazol-4-yl]-3-methyl-benzamide], for which the IC50 is greater than 100 µM on CDK1:Cyclin-B, greater than 10 µM on CDK2:Cyclin A and greater than 100 µM at VEGF-R2 kinase domain.
On to `Cc1ccc(F)c(C(=O)Nc2cccc3sc(Nc4ccc(S(N)(=O)=O)cc4)nc23)c1F` [Cpd 12, 2,6-difluoro-3-methyl-N-[2-(4-sulfamoyl-phenylamino)-benzothiazol-4-yl]-benzamide], for which the IC50 on CDK1:Cyclin-B, at CDK2:Cyclin A and on VEGF-R2 kinase domain was greater than 100 µM throughout.
Turning to `Cc1cc(C(=O)Nc2cccc3sc(Nc4ccccc4)nc23)n(C)n1` [Cpd 13, 2,5-dimethyl-2H-pyrazole-3-carboxylic acid (2-phenylamino-benzothiazol-4-yl)-amide], the half-inhibitory concentration (IC50) on CDK1:Cyclin-B was greater than 10 µM; at CDK2:Cyclin A, 3.34 µM; on VEGF-R2 kinase domain, greater than 100 µM.
With `Cc1ccc(Nc2nc3c(NC(=O)c4c(F)ccc(C)c4F)cccc3s2)cc1` [Cpd 14, 2,6-difluoro-3-methyl-N-(2-p-tolylamino-benzothiazol-4-yl)-benzamide], the results for the IC50 at CDK1:Cyclin-B, on CDK2:Cyclin A and on VEGF-R2 kinase domain were greater than 100 µM, 3.09 µM and greater than 100 µM, respectively.
Take `O=C(Nc1cccc2sc(Nc3ccccc3)nc12)c1ccncn1` [Cpd 15, pyrimidine-4-carboxylic acid (2-phenylamino-benzothiazol-4-yl)-amide]: the concentration for half-maximal inhibition (IC50) is greater than 100 µM at CDK1:Cyclin-B, 89.1 µM at CDK2:Cyclin A and greater than 100 µM at VEGF-R2 kinase domain.
In the case of `CC(=O)Nc1cccc2sc(Nc3ccccc3)nc12` [Cpd 16, N-(2-phenylamino-benzothiazol-4-yl)-acetamide], the half-maximal inhibitory concentration (IC50) at CDK1:Cyclin-B was greater than 100 µM; at CDK2:Cyclin A, greater than 10 µM; at VEGF-R2 kinase domain, greater than 100 µM.
Consider `NS(=O)(=O)c1ccc(C(=O)Nc2cccc3sc(Nc4ccccc4)nc23)cc1` [Cpd 17, N-(2-phenylamino-benzothiazol-4-yl)-4-sulfamoyl-benzamide], for which the IC50 on CDK1:Cyclin-B was greater than 100 µM; at CDK2:Cyclin A, 3.05 µM; at VEGF-R2 kinase domain, greater than 100 µM.
Consider `O=C(Nc1cccc2sc(Nc3ccccc3)nc12)c1ccno1` [Cpd 18, isoxazole-5-carboxylic acid (2-phenylamino-benzothiazol-4-yl)-amide], for which the results for the half-inhibitory concentration (IC50) at CDK1:Cyclin-B, on CDK2:Cyclin A and on VEGF-R2 kinase domain were greater than 100 µM, 7.51 µM and greater than 100 µM, respectively.
With `O=C(Nc1cccc2sc(Nc3ccccc3)nc12)c1cccc([N+](=O)[O-])c1` [Cpd 19, 3-nitro-N-(2-phenylamino-benzothiazol-4-yl)-benzamide], the half-maximal inhibitory concentration (IC50) on CDK1:Cyclin-B was greater than 100 µM; on CDK2:Cyclin A, 10.8 µM; on VEGF-R2 kinase domain, greater than 100 µM.
Turning to `Nc1cccc(C(=O)Nc2cccc3sc(Nc4ccccc4)nc23)c1` [Cpd 20, 3-amino-N-(2-phenylamino-benzothiazol-4-yl)-benzamide], the IC50 on CDK1:Cyclin-B is greater than 100 µM; on CDK2:Cyclin A, 5.28 µM; at VEGF-R2 kinase domain, greater than 100 µM.
